From patent US20090312194A1, “SELECTION OF PERSONALIZED CANCER THERAPY REGIMENS USING INTERFERING RNA FUNCTIONAL SCREENING” (OREGON HEALTH & SCIENCE UNIVERSITY, priority 2008, published 2009) come the findings set out here.

Data set [1] concerns the target MPL^1886InsGG (thrombopoietin receptor with two base-pair GG insertion in exon 12) (human) (UniProt P40238). Nature of the data set: cell-based or functional assay. To be noted: scale: fold lower dose of thrombopoietin than MPL^WT.
A further data set relates to HMC1.1 cells. Nature of the data set: MTS proliferation assay with small-molecule kinase inhibitors, HMC1.1 cells. Type of data set: cell-based, human. Conditions: for IC50: 72 hours, MTS assay. As for the experimental part:
(§1) K562 cells were obtained from American Type Culture Collection (Manassas, Va.). CMK and HEL cells were obtained from the German National Resource Centre for Biological Material (DSMZ). […] For proliferation assays, cells were incubated for 72 hours in the presence of JAK Inhibitor I, JAK3 inhibitor III, AG-490, PP2, or Src Kinase Inhibitor I (EMD BIOSCIENCES®, San Diego, Calif.), and the number of viable cells was determined with the […] 96® AQueous One solution cell proliferation assay (PROMEGA®, Madison, Wis.). For HMC1.1 cell stimulation, cells were serum starved overnight in RPMI supplemented with 0.1% bovine serum albumin, L-glutamine, and penicillin/streptomycin. The following day, cells were stimulated for five minutes with 100 ng/ml recombinant stem cell factor (Peprotech, Rocky Hill, N.J.).
(§2) For tyrosine kinase siRNA library knockdown experiments, a Student's t test was carried out for each well in comparison to both single and pooled non-specific siRNA controls. The mean of the two-tailed p-value was determined for consideration of significance and data points with p-value less than 0.05 and mean value less than 70% of non-specific controls were considered significant. For cell proliferation assays, a Student's t test was carried out for each dose point comparing HMC1.1 to K562 cell viability.

The next data set deals with K562 cells. Nature of the data set: MTS proliferation assay with small-molecule kinase inhibitors, K562 control cells. Type of data set: cell-based. To be noted: concentrations up to and including 10 μM. As for the experimental part: as §1, §2
In data set [2] the test system is primary cells from patient samples. Nature of the data set: Colony assay of primary patient cells in methocult. Type of data set: cell-based, human. Conditions: ten days. As for the experimental part:
For determination of factor-independent growth, parental BA/F3 cells as well as BA/F3 cells expressing […], or W515L were washed three times and 1 million cells were seeded into triplicate wells of a 6-well plate in R10. Total viable cells were determined every day for 1 week using PI exclusion on a Guava cell counter (GUAVA TECHNOLOGIES®). For colony assays, 200,000 primary cells from patient samples were incubated in the presence of dose gradients of AG490, SU11248, or PTK787 in methocult containing IL-3, GM-CSF, and SCF ([…] TECHNOLOGIES®). Ten days later, colonies were counted manually or using a GELCOUNT® automated colony counter (OXFORD OPTRONIX®, Oxford, UK). For siRNA functional screens on patient samples, a Student's t test was carried out for each well in comparison to both single and pooled non-specific siRNA controls. The mean of the two-tailed p-value was determined for consideration of significance. […] For cell proliferation, cell viability, and colony assays, a Student's t test was carried out for each dose or time point compared with the relevant control cell line or the no drug control.

The next data set relates to HEL cells. Nature of the data set: MTS proliferation assay with kinase inhibitors, HEL cells. The format is cell-based. To be noted: HEL cells (JAK2 V617F), 72 hours. The procedure: as §1
(§3) 96 AQueous One solution cell proliferation assay (PROMEGA®). […] Total viable cells were determined every day for 1 week using PI exclusion on a Guava cell counter (GUAVA TECHNOLOGIES®). […] Ten days later, colonies were counted manually or using a GELCOUNT® automated colony counter (OXFORD OPTRONIX®, Oxford, UK).
Background: Tetrazolium assays rely on reduction of a dye to a coloured formazan, in cell work by metabolically active cells.

Data set [3] deals with primary cells from patient samples. Nature of the data set: Cell viability assay (MTS) of primary patient cells with inhibitor dose gradients. To be noted: cells from CMML patient 07-079, three days. The format is cell-based, human.
The subject of data set [4] is BA/F3 cells expressing MPL 1886InsGG. Nature of the data set: Proliferation assay, factor-independent BA/F3 cells expressing MPL 1886InsGG. Type of data set: cell-based. Conditions: factor-independent BA/F3 MPL 1886InsGG, three days. As for the experimental part: as §3
(§4) MPL was then cloned into a Gateway compatible version of MSCV-IRES-GFP (MIG) by performing an LR recombination reaction. […] One milliliter of viral supernatant was mixed with polybrene (5 mg/ml), HEPES (7.5 mM), and 10^6 BA/F3 cells and placed in a centrifuge at 2500 RPM for 90 minutes at 30° C.

The subject of data set [5] is BA/F3 cells expressing MPL W515L. Briefly: Proliferation assay, factor-independent BA/F3 cells expressing MPL W515L. The format is cell-based. Conditions: three days. As for the experimental part: as §3, §4
In data set [6] the test system is Patient 07-079, ASM with associated CMML. Nature of the data set: Midostaurin treatment of patient 07-079. The format is in vivo, human. Conditions: patient 07-079, midostaurin 50 mg bid, briefly in combination with hydroxyurea.
Protocol: White blood cell counts were monitored over 9 days. Normal white blood cell counts range from 4−12×10^3 per ml. […] Cells were then stimulated for 15 minutes with thrombopoietin (10 ng/ml) and cell lysates were subjected to immunoblot analysis for phospho or total-JAK2 as well as β-actin. […] Cell proliferation was determined after three days. Values represent the percent mean (normalized to untreated control wells)±s.e.m. (n=3).

The molecule “recombinant thrombopoietin (Peprotech) (ligand)” yielded a phosphorylation of JAK2, STAT3, STAT5, ERK and AKT (immunoblot) after thrombopoietin stimulation of BA/F3 cells in data set [1] of 10.
As usually defined, the IC50 is the point on the concentration scale where inhibition reaches its midpoint. In the data set on HMC1.1 cells, JAK inhibitor I registered an IC50 of 5 µM. In addition, in the data set on HMC1.1 cells (JAK inhibitor I dose range plus 1.5 μM PP2, compared with JAK inhibitor alone), the “viability in combination with PP2” value is “lower viability readings at all dose points”. The “reduction of viability and proliferation” value in the data set on HMC1.1 cells (maximal reduction despite increasing concentrations) is reported as approximately 50%. For the same molecule, the sensitivity to inhibitor entry in the data set with K562 cells is “resistant”.
As for `CC(C)(C)n1nc(-c2ccc(Cl)cc2)c2c(N)ncnc21` [PP2], the IC50 in the data set on HMC1.1 cells stood at 1.5 µM.
On to `Clc1ccc(Nc2nnc(Cc3ccncc3)c3ccccc23)cc1` [PTK787], for which, in data set [2] (cells from AML patient 07-008, methocult with IL-3, GM-CSF, SCF), the colony formation entry was “blocked by each drug at low nanomolar concentrations”.
`N#C/C(=C\c1ccc(O)c(O)c1)C(=O)NCc1ccccc1` [AG-490]: the IC50 with HMC1.1 cells was more than 50 µM; in the data set with HEL cells, 45 µM. Further, the “sensitivity in cell viability assay” value in data set [3] is listed as “Strong sensitivity”. Also, the “sensitivity in colony assay” value in [2] (cells from CMML patient 07-079, methocult) is “Strong sensitivity”. In addition, the sensitivity to inhibitor entry in data set [4] and in data set [5] was “strong sensitivity” in each case.
Consider `CO[C@@H]1[C@H](N(C)C(=O)c2ccccc2)C[C@H]2O[C@]1(C)n1c3ccccc3c3c4c(c5c6ccccc6n2c5c31)C(=O)NC4` [midostaurin], for which the “period to normalization of WBC counts” value in data set [6] turned out to be 5 days.
On to `COc1cc2ncnc(Nc3ccc(Oc4ccccc4)cc3)c2cc1OC` [SRC inhibitor I], for which the IC50 in the data set on HMC1.1 cells was found to be 5 µM.
